Measurements: ChEMBL document CHEMBL4819087, “Identification and optimization of 3-bromo-N'-(4-hydroxybenzylidene)-4-methylbenzohydrazide derivatives as mTOR inhibitors that induce autophagic cell death and apoptosis in triple-negative breast cancer” (Eur J Med Chem, 2021)
Activity calls are given as the source filed them. No cut-off for these calls is given here.

Tests used:
[1] = tested on: MDA-MB-231; experiment: Induction of apoptosis in human MDA-MB-231 cells assessed as early apoptotic cells at 5 uM after 24 hrs by AnnexinV-FITC/PI staining based flow cytometry analysis (reference value: 2.63%); assay type: functional
[2] = target: T1, Serine/threonine-protein kinase mTOR (Homo sapiens, UniProt P42345); experiment: Inhibition of mTOR in human MDA-MB-231 cells assessed as reduction in p-AKT(Ser473) protein level at 0.5 to 2 uM after 24 hrs by Western blot analysis; assay type: cell-based; details: dose 0.5-2 µM
[3] = target: T1, Serine/threonine-protein kinase mTOR; experiment: Inhibition of mTOR in human MDA-MB-468 cells assessed as reduction in p70S6K(Thr389) protein level at 0.5 to 2 uM after 24 hrs by Western blot analysis; assay type: cell-based; details: dose 0.5-2 µM
[4] = tested on: MDA-MB-231; experiment: Induction of apoptosis in human MDA-MB-231 cells assessed as necrotic cells at 2.5 uM after 24 hrs by AnnexinV-FITC/PI staining based flow cytometry analysis (reference value: 0.083%); assay type: functional
[5] = tested on: A549; experiment: cells; details: Homo sapiens, A549, 24 h
Description: Antiproliferative activity against human A549 cells assessed as reduction in cell viability incubated for 24 hrs by MTT assay

[6] = tested on: MDA-MB-231; experiment: Induction of apoptosis in human MDA-MB-231 cells assessed as late apoptotic cells at 5 uM after 24 hrs by AnnexinV-FITC/PI staining based flow cytometry analysis (reference value: 0.84%); assay type: functional
[7] = tested on: MDA-MB-468; experiment: Induction of apoptosis in human MDA-MB-468 cells assessed as early apoptic cells at 5 uM after 24 hrs by AnnexinV-FITC/PI staining based flow cytometry analysis (reference value: 0.51%); assay type: functional
[8] = tested on: MDA-MB-468; experiment: Induction of apoptosis in human MDA-MB-468 cells assessed as viable cells at 2.5 uM after 24 hrs by AnnexinV-FITC/PI staining based flow cytometry analysis (reference value: 95.1%); assay type: functional; details: read-out: Activity
[9] = tested on: MDA-MB-231; experiment: Antiproliferative activity against human MDA-MB-231 cells assessed as inhibition of cell viability at 5 uM preincubated with autophagy inhibitor, 3-methyladenine for 1 hr followed by compound addition and measured after 24 hrs by MTT assay; assay type: functional, cell-based
[10] = tested on: MDA-MB-231; experiment: Induction of apoptosis in human MDA-MB-231 cells assessed as viable cells at 10 uM after 24 hrs by AnnexinV-FITC/PI staining based flow cytometry analysis (reference value: 95.6 to 96.45%); assay type: functional; details: read-out: Activity
[11] = tested on: MDA-MB-468; experiment: Induction of apoptosis in human MDA-MB-468 cells assessed as late apoptic cells at 2.5 uM after 24 hrs by AnnexinV-FITC/PI staining based flow cytometry analysis (reference value: 2.84%); assay type: functional
[12] = tested on: MDA-MB-231; experiment: Induction of apoptosis in human MDA-MB-231 cells assessed as increase in Bax level at 2.5 to 10 uM incubated for 24 hrs by western blot analysis; assay type: functional, cell-based; details: dose 2.5-10 µM
[13] = tested on: MDA-MB-231; experiment: Induction of apoptosis in human MDA-MB-231 cells assessed as viable cells at 5 uM after 24 hrs by AnnexinV-FITC/PI staining based flow cytometry analysis (reference value: 96.45%); assay type: functional; details: read-out: Activity
[14] = target: T1, Serine/threonine-protein kinase mTOR; experiment: Inhibition of mTOR in human MDA-MB-231 cells assessed as reduction in AKT protein level at 0.5 to 2 uM after 24 hrs by Western blot analysis; assay type: cell-based; details: dose 0.5-2 µM
[15] = tested on: MDA-MB-231; experiment: Antiproliferative activity against human MDA-MB-231 cells measured after 24 hrs by Hoechst 33258 dye based fluorescence microscopic analysis; assay type: functional, cell-based; details: dose 2.5-10 µM
[16] = tested on: MDA-MB-468; experiment: Induction of apoptosis in human MDA-MB-468 cells assessed as necrotic cells at 10 uM after 24 hrs by AnnexinV-FITC/PI staining based flow cytometry analysis (reference value: 1.56%); assay type: functional
[17] = target: T1, Serine/threonine-protein kinase mTOR; experiment: Inhibition of mTOR in human MDA-MB-231 cells assessed as reduction in p-4EBP1(Thr37/46) protein level at 0.5 to 2 uM after 24 hrs by Western blot analysis; assay type: cell-based; details: dose 0.5-2 µM
[18] = tested on: MDA-MB-468; experiment: (§1) Induction of apoptosis in human MDA-MB-468 cells assessed as early apoptotic cells at 10 uM pretreated for 1 hr with autophagy inhibitor, 3-methyladenine followed by incubation with compound and measured after 24 hrs by Annexin V-FITC/propidium iodide staining based flow cytometry (reference value: 4.08%); assay type: functional; design: scale not given: the % may be the effect or the level left
[19] = tested on: MDA-MB-231; experiment: Induction of apoptosis in human MDA-MB-231 cells assessed as decrease in Bcl2 level at 2.5 to 10 uM incubated for 24 hrs by western blot analysis; assay type: functional, cell-based; details: dose 2.5-10 µM
[20] = tested on: MDA-MB-468; experiment: cells; details: Homo sapiens, MDA-MB-468, 24 h
Description: Antiproliferative activity against human MDA-MB-468 cells assessed as reduction in cell viability incubated for 24 hrs by MTT assay

[21] = tested on: MDA-MB-231; experiment: as §1, with “MDA-MB-231” for “MDA-MB-468”, “late” for “early”, “pretreated” for “pretreated for 1 hr”, “3-methyladenine for 1 hr” for “3-methyladenine”, “3.11%)” for “4.08%)”; assay type: functional; design: scale not given: the % may be the effect or the level left
[22] = target: T1, Serine/threonine-protein kinase mTOR; experiment: Inhibition of mTOR in human MDA-MB-468 cells assessed as reduction in AKT protein level at 0.5 to 2 uM after 24 hrs by Western blot analysis; assay type: cell-based; details: dose 0.5-2 µM
[23] = tested on: MDA-MB-231; experiment: Induction of apoptosis in human MDA-MB-231 cells assessed as necrotic cells at 10 uM after 24 hrs by AnnexinV-FITC/PI staining based flow cytometry analysis (reference value: 0.083%); assay type: functional
[24] = tested on: MDA-MB-468; experiment: Induction of autophagy in human MDA-MB-468 cells assessed as increase in LC3-II protein level at 2.5 to 10 uM incubated for 24 hrs by Western blot analysis; assay type: functional, cell-based; details: dose 2.5-10 µM
[25] = tested on: MDA-MB-231; experiment: Induction of autophagy in human MDA-MB-231 cells assessed as MDC positive ratio at 1 uM incubated for 6 hrs by MDC staining based flow cytometry analysis; assay type: functional
[26] = target: T1, Serine/threonine-protein kinase mTOR; experiment: Inhibition of mTOR in human MDA-MB-468 cells assessed as reduction in P70S6 protein level at 0.5 to 2 uM after 24 hrs by Western blot analysis; assay type: cell-based; details: dose 0.5-2 µM
[27] = tested on: MDA-MB-468; experiment: Induction of autophagy in human MDA-MB-468 cells assessed as reduction in p62 protein level at 2.5 to 10 uM incubated for 24 hrs by Western blot analysis; assay type: functional, cell-based; details: dose 2.5-10 µM
[28] = target: T1, Serine/threonine-protein kinase mTOR; experiment: Inhibition of mTOR in human MDA-MB-231 cells assessed as reduction in P70S6 protein level at 0.5 to 2 uM after 24 hrs by Western blot analysis; assay type: cell-based; details: dose 0.5-2 µM
[29] = tested on: MDA-MB-468; experiment: Induction of autophagy in human MDA-MB-468 cells assessed as increase in Beclin-1 protein level at 2.5 to 10 uM incubated for 24 hrs by Western blot analysis; assay type: functional, cell-based; details: dose 2.5-10 µM
[30] = tested on: MDA-MB-468; experiment: Induction of apoptosis in human MDA-MB-468 cells assessed as viable cells at 5 uM after 24 hrs by AnnexinV-FITC/PI staining based flow cytometry analysis (reference value: 95.1%); assay type: functional; details: read-out: Activity
[31] = tested on: MDA-MB-468; experiment: Induction of apoptosis in human MDA-MB-468 cells assessed as decrease in Bcl2 level at 2.5 to 10 uM incubated for 24 hrs by western blot analysis; assay type: functional, cell-based; details: dose 2.5-10 µM
[32] = tested on: MDA-MB-231; experiment: cells; details: Homo sapiens, MDA-MB-231, 24 h
Description: Antiproliferative activity against human MDA-MB-231 cells assessed as reduction in cell viability incubated for 24 hrs by MTT assay

[33] = tested on: MDA-MB-468; experiment: Inhibition of colony formation in human MDA-MB-468 cells measured after 14 days by crystal violet staining based assay; assay type: functional, cell-based; details: dose 5-10 µM, time 14.0 day
[34] = tested on: MDA-MB-468; experiment: Induction of apoptosis in human MDA-MB-468 cells assessed as early apoptic cells at 10 uM after 24 hrs by AnnexinV-FITC/PI staining based flow cytometry analysis (reference value: 0.51 to 2.55%); assay type: functional

inhibition [2]: Active
inhibition [3]: Active
IC50 [5]: 6.48 µM
inhibition [14]: Active
inhibition [17]: Active
IC50 [20]: 4.3 µM
inhibition [22]: Active
inhibition [26]: Active
inhibition [28]: Active
IC50 [32]: 3.38 µM
Structure (SMILES): C/C(=N\NC(=O)c1cccc(Br)c1)c1ccc(C(=O)Nc2nc3ccccc3[nH]2)cc1
Activity [1]: 10.5%
Activity [4]: 0.076%
Activity [6]: 2.3%
Activity [7]: 5.57%
viability at 2.5 µM [8]: 89.8%
Activity [9]: Active
viability at 10 µM [10]: 70.2%
Activity [11]: 4.96%
Activity [12]: Active
viability at 5 µM [13]: 87.1%
Activity [15]: Dose-Dependent Effect
Activity [16]: 1.24%
Activity [18]: 7.07%
Activity [19]: Active
Activity [21]: 6.8%
Activity [23]: 0.15%
Activity [24]: Active
Activity [25]: 25.67%
Activity [27]: Active
Activity [29]: Active
viability at 5 µM [30]: 86.2%
Activity [31]: Active
inhibition [33]: Dose-Dependent Effect
Activity [34]: 12%
